# Tests used:
# [1] = tested on: VSMCs; experiment: Hypoxia (CoCl2) induced oxidative stress in VSMCs (DCFDA); format: cell-based; conditions: 10 μM, after 50 μM CoCl2 for 19 hours
# Experimental: This study was performed to determine whether intracellular oxidative stress in VSCMs is derived from mitochondrial dysfunction. To perform this study, VSMCs were incubated with cobalt chloride, a known stabilizer of HIF1a. Cobalt chloride binding to HIF1a prevents the degradation of HIF1a and thus results in a cellular hypoxia state. HIF1a has been implicated in cancer biology as well as a number of other pathophysiologies, specifically in areas of vascularization and angiogenesis, energy metabolism, cell survival, and tumor invasion. Under normal circumstances, after injury, HIF1a is degraded by the enzyme prolyl hydroxylase (PHD). The continued up-regulation of HIF1 a (mimicked by cobalt chloride) promotes tumor growth and metastasis through its role in initiating angiogenesis and regulating cellular metabolism to overcome hypoxia. Hypoxia promotes apoptosis in both normal and tumor cells. Additionally, hypoxia generates significant intracellular oxidative stress.
# To perform the study, VSMCs (10,000 cells/well) were plated in a 96-well plate and left to adhere overnight. Next, the medium was changed to a medium supplemented with 50 μM CoCl2 for 19 hours. The next day, cells were washed and incubated for 1 hour with 20 μM DCFDA in the presence of a vehicle (solvent for CoCl2 and vitamin K2 (MK-7)/UQ10), 10 μM vitamin K2 (MK-7), or 10 μM UQ10 in medium. The medium was then changed to a medium supplemented with vehicle, vitamin K2 (MK-7)/UQ10, or CoCl2, and fluorescent was measured for 6 hours. Fluorescence intensity was normalized for cell count.
# [2] = tested on: human vascular smooth muscle cells (hVSMCs); experiment: Vitamin K2 (MK-7) and ATP pathway: ATP luminescence with warfarin; format: cell-based; conditions: warfarin 50 μM with vitamin K2 (MK-7) 10 μM, 24 hours
# Experimental: This study was performed in order to determine the effect of vitamin K2 (MK-7) on warfarin-induced oxidative stress in muscles. To perform this study, human vascular smooth muscle cells (hVSMCs; 5,000 cells/well) were plated in 96-well dark plates and left to adhere overnight. Next, cells were incubated for 24 hours with either vehicle only (as blank control), warfarin (10 or 50 μM), vitamin K2 (MK-7) (10 μM), or a combination of warfarin (50 μM) and vitamin K2 (MK-7) (10 μM). Hoechst was added to correct for cell number (1 μg/mL). Next, ATP was measured using mammalian lysis buffer for 5 minutes after which 50 μL ATP substrate solution was added to the wells and incubated for 10 minutes in a dark environment. Finally, medium was transferred to a white plate to measure luminescence.
# [3] = tested on: VSMCs; experiment: ATP increase, 48 h incubation with CoCl2 comparison (luminescence); format: cell-based; conditions: 10 μM, vs CoCl2 100 μM
# Experimental: This study was performed to further investigate the origin of ATP production that is influenced by vitamin K2 (MK-7). To perform this study, VSCMs (5000 cells/well) were plated in 96-well plates and left to adhere overnight. Next, cells were incubated for 48 hours with either vehicle, CoCl2 (100 μM), vitamin K2 (MK-7) (10 μM), or UQ10 (10 μM). Hoechst was added to correct for cell number (1 μg/mL). Next, ATP was measured using mammalian lysis buffer for 5 minutes, after which 50 μL ATP substrate solution was added to the wells and incubated for 10 minutes in a dark environment. Finally, medium was transferred to a white plate to measure luminescence.
# [4] = tested on: VSMCs; experiment: Vitamin K2 (MK-7) and hypoxia: ATP on co-treatment with CoCl2; format: cell-based; conditions: co-treatment CoCl2 100 μM and 10 μM, 24 hours
# Experimental: This study was performed to investigate whether vitamin K2 (MK-7) can prevent the hypoxia-induced decrease in ATP (CoCl2 treatment, thereby stabilization of HIF1a). To perform this study, VSMCs were co-treated with CoCl2 and vitamin K2 (MK-7).
# First, VSCMs (5000 cells/well) were plated in 96-well plates and left to adhere overnight. Next, cells were incubated for 24 hours with either CoCl2 (100 μM) or CoCl2 and vitamin K2 (MK-7) or UQ10 together (100 and 10 μM, respectively). Next, ATP was measured and corrected for cell numbers. CoCl2 values were set as relative to CoCl2 co-treated with vitamin K2 (MK-7) or UQ10. Hoechst was added to correct for cell number (1 μg/mL). Next, ATP was measured using mammalian lysis buffer for 5 minutes after which 50 μL ATP substrate solution was added to the wells and incubated for 10 minutes in a dark environment. Finally, medium was transferred to a white plate to measure luminescence.
# [5] = tested on: Sprague-Dawley rats; experiment: Thrombin Time (TT) in treated Sprague-Dawley rats; format: in vivo, rat; conditions: added to dabigatran and to rivaroxaban
# Experimental: To perform the study, 45 wild-type male Sprague-Dawley and 45 transgenic male Ren-2 rats [TGR(mREN-2)27] at the age of 10-11 weeks at the beginning of the treatment period were purchased from animal facility IKEM-CEM Institute of Clinical and Experimental Medicine (Prague, Czech Republic). All animals in the experiment were housed in individually ventilated cages (2-3 rats per cage) and kept in the animal rooms of JCET at a relative humidity of 55±10%, a temperature of 22±2 ° C., and a light cycle of 7 AM to 7 PM. The rats had free access to food and water. After delivery, animals were randomly divided into 10 experimental groups (5 or 10 rats per group), as indicated below in Table 1.
# Four days before the start of the treatment, the first part of animals' body weight and food intake was measured in selected representative three cages (rats n=9) to calculate the appropriate amount of tested compounds required for addition to the diet to obtain the dosing indicated in Table 1. It was estimated that food intake was approximately 30 g of chow per rat per day. […] The body mass of the rats was measured at the beginning and at the end of treatment.
# Prothrombin Time (PT), activated Partial Thromboplastin Time (aPTT), Thrombin Time (TT) and fibrinogen levels (Clauss method) were determined according to the manufacturer's instructions using Coag-Chrom 3003 apparatus (Bio-ksel, Grudziadz, Poland). […]
smiles,measurement,setting,value
CC(C)=CCC/C(C)=C/CC/C(C)=C/CC/C(C)=C/CC/C(C)=C/CC/C(C)=C/CC/C(C)=C/CC1=C(C)C(=O)c2ccccc2C1=O [vitamin K2 (MK-7)],hypoxia induced oxidative stress (counteraction),[1],seems to counteract hypoxia induced oxidative stress
same,oxidative stress induced by warfarin,[2],counteracted the oxidative stress induced by warfarin
same,ATP levels compared to CoCl2,[3],significant higher ATP levels
same,prevention of hypoxia-induced (CoCl2) decrease in ATP generation,[4],could (partially) prevent the decreased ATP generation
same,increase of thrombin time on addition of vitamin K2 (MK-7),[5],5-7%

# Source: US20220160652A1, “USE OF VITAMIN K IN COMBINATION WITH ANTICOAGULANTS” (KAYDENCE PHARMA AS, priority 2019, published 2022)
